Data: the NIST ThermoML archive (doi:10.1021/je700645p)

What was measured:
[1] = refractive index (Na D-line) (dimensionless); conditions: 298.15 K; 81.5 kPa; Liquid; Standard Abbe refractometry
[2] = 81.5 kPa, Liquid
[3] = xn = mol fraction of the nth substance listed; conditions: 81.5 kPa, Liquid

CC#N [acetonitrile]
Conditions | refractive index
[1] | 1.3417

[2]
Conditions | mass density [kg/m3]
293.15 K | 781.97
303.15 K | 771.15
313.15 K | 760.2
323.15 K | 749.12
333.15 K | 737.87

CC#N [acetonitrile] + C[S+](C)[O-]
[3], x1 = 1
Conditions | mass density [kg/m3]
293.15 K | 781.97
303.15 K | 771.15
313.15 K | 760.2
323.15 K | 749.12
333.15 K | 737.87

CC#N [acetonitrile] + O
mass density [kg/m3], [3]
Conditions | 293.15 K | 303.15 K | 313.15 K | 323.15 K | 333.15 K
x2 = 0 | 781.97 | 771.15 | 760.2 | 749.12 | 737.87
x2 = 0.0417 | 785.6 | 774.79 | 763.85 | 752.77 | 741.52
x2 = 0.0833 | 789.62 | 778.83 | 767.91 | 756.84 | 745.6
x2 = 0.1568 | 797.67 | 786.95 | 776.09 | 765.06 | 753.85
x2 = 0.2095 | 804.01 | 793.33 | 782.6 | 771.62 | 760.47
x2 = 0.3247 | 819.96 | 809.63 | 799.11 | 788.38 | 777.43
x2 = 0.4127 | 834.27 | 824.27 | 814.05 | 803.6 | 792.91
x2 = 0.496 | 849.71 | 840.11 | 830.25 | 820.14 | 809.77
x2 = 0.5704 | 864.78 | 855.57 | 846.08 | 836.32 | 826.29
x2 = 0.6361 | 880.12 | 871.32 | 862.22 | 852.82 | 843.13
x2 = 0.7201 | 902.94 | 894.74 | 886.22 | 877.38 | 868.22
x2 = 0.7961 | 926.99 | 919.47 | 911.61 | 903.39 | 894.84
x2 = 0.8788 | 956.73 | 950.35 | 943.52 | 936.28 | 928.67
x2 = 0.9573 | 984.72 | 980.43 | 975.45 | 969.87 | 963.64

C[S+](C)[O-] [dimethyl sulfoxide]
Conditions | refractive index
[1] | 1.4767

[2]
Conditions | mass density [kg/m3]
293.15 K | 1100.41
303.15 K | 1090.37
313.15 K | 1080.34
323.15 K | 1070.3
333.15 K | 1060.27

C[S+](C)[O-] [dimethyl sulfoxide] + CC#N
mass density [kg/m3], [3]
Conditions | 293.15 K | 303.15 K | 313.15 K | 323.15 K | 333.15 K
x2 = 0 | 1100.41 | 1090.37 | 1080.34 | 1070.3 | 1060.27
x2 = 0.0563 | 1087.32 | 1077.27 | 1067.22 | 1057.17 | 1047.11
x2 = 0.1195 | 1072.32 | 1062.27 | 1052.21 | 1042.11 | 1032.03
x2 = 0.1751 | 1058.54 | 1048.48 | 1038.38 | 1028.38 | 1018.15
x2 = 0.2996 | 1025.83 | 1015.69 | 1005.54 | 995.35 | 985.14
x2 = 0.3723 | 1005.56 | 995.38 | 985.18 | 974.94 | 964.64
x2 = 0.4529 | 981.91 | 971.68 | 961.4 | 951.09 | 940.71
x2 = 0.5273 | 959 | 948.69 | 938.36 | 927.96 | 917.5
x2 = 0.579 | 942.39 | 932.08 | 921.68 | 911.22 | 900.68
x2 = 0.6896 | 904.94 | 894.48 | 883.96 | 873.36 | 862.66
x2 = 0.7579 | 880.41 | 869.88 | 859.27 | 848.57 | 837.77
x2 = 0.8337 | 851.62 | 841 | 830.29 | 819.48 | 808.55
x2 = 0.933 | 811.3 | 800.6 | 789.76 | 778.79 | 767.68

C[S+](C)[O-] [dimethyl sulfoxide] + O
mass density [kg/m3], [3]
Conditions | 293.15 K | 303.15 K | 313.15 K | 323.15 K | 333.15 K
x2 = 0 | 1100.41 | 1090.37 | 1080.34 | 1070.3 | 1060.27
x2 = 0.0568 | 1100.94 | 1090.97 | 1081.01 | 1071.03 | 1061.04
x2 = 0.1605 | 1101.91 | 1092.1 | 1082.26 | 1072.41 | 1062.5
x2 = 0.2252 | 1102.54 | 1092.83 | 1083.1 | 1073.32 | 1063.49
x2 = 0.3187 | 1103.26 | 1093.73 | 1084.18 | 1074.52 | 1064.79
x2 = 0.3953 | 1103.54 | 1094.31 | 1084.89 | 1075.37 | 1065.74
x2 = 0.4582 | 1103.48 | 1094.25 | 1084.95 | 1075.54 | 1066
x2 = 0.5473 | 1102.05 | 1093.11 | 1084.03 | 1074.8 | 1065.41
x2 = 0.6473 | 1097.2 | 1088.67 | 1079.97 | 1071.08 | 1062
x2 = 0.7213 | 1089.55 | 1081.52 | 1073.28 | 1064.82 | 1056.12
x2 = 0.7997 | 1075.48 | 1068.31 | 1060.87 | 1053.13 | 1045.11
x2 = 0.8828 | 1051.12 | 1045.47 | 1039.4 | 1032.81 | 1024.92
x2 = 0.9632 | 1016.98 | 1013.46 | 1009.19 | 1003.92 | 998.73

O [water] + CC#N
[3], x1 = 1
Conditions | mass density [kg/m3]
323.15 K | 988.03
333.15 K | 983.19

O [water] + C[S+](C)[O-]
[3], x1 = 1
Conditions | mass density [kg/m3]
323.15 K | 988.03
333.15 K | 983.19
